# In patent publication US9872875B2, “Component and method for treating viral disease” (Institut Pasteur of Shanghai, Chinese Academy of Sciences, priority 2012, dated 2018):
# Where two headings read alike, the source gives them in different places.
# Columns and labels:
# P2X3 receptor = molecular target: T1, P2X3 receptor (Homo sapiens, UniProt P56373); conditions: cited from earlier work
# T1 sequence (P56373 1-397): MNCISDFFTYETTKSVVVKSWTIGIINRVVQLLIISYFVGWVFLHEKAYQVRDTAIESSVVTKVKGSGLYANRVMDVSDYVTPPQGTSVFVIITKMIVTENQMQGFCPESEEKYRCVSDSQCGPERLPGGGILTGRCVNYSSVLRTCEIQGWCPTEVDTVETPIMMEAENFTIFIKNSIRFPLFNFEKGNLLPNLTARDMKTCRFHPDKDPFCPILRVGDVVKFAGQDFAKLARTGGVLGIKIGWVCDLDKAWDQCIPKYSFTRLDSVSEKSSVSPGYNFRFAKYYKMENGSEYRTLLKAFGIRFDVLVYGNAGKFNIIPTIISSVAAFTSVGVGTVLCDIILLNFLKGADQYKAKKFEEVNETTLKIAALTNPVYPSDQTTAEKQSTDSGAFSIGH
# P2X4 receptor = molecular target: T2, P2X4 receptor (Homo sapiens, UniProt Q99571); conditions: cited from earlier work
# T2 sequence (Q99571 1-388): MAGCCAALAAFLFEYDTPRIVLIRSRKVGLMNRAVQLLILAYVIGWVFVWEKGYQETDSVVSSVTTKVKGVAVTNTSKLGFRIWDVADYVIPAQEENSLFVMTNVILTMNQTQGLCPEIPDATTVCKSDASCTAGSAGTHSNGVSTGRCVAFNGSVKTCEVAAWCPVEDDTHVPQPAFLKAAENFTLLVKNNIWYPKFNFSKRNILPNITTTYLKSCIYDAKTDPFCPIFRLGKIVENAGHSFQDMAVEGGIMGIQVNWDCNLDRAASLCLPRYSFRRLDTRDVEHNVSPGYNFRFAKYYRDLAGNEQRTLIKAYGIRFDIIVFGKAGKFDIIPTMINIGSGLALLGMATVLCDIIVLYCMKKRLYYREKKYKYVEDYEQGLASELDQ
# P2X7 receptor = molecular target: T3, P2X7 receptor (Homo sapiens, UniProt Q99572); conditions: cited from earlier work
# T3 sequence (Q99572 1-595): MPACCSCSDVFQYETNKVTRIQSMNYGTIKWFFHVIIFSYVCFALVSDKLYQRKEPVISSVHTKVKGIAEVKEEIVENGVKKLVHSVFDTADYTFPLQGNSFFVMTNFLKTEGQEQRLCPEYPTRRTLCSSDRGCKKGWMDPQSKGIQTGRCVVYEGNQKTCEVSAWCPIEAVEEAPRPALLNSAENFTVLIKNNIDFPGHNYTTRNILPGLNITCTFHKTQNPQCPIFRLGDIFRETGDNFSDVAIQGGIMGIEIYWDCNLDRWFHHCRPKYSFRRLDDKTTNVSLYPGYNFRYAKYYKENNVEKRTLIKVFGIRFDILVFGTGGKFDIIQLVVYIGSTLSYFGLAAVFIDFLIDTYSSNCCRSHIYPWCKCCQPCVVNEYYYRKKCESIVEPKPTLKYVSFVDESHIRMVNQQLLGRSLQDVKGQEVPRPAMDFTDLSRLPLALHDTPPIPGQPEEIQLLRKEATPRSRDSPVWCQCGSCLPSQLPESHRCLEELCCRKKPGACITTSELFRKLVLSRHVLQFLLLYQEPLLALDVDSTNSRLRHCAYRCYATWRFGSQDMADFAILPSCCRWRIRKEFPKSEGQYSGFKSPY
# P2X1 receptor = molecular target: T4, P2X1 receptor (Homo sapiens, UniProt P51575); set-up: key: −: no activity; +: activating concentration >10 μM; ++: activating concentration 1~10 μM; +++: activating concentration <1 μM; conditions: cited from earlier work
# T4 sequence (P51575 1-399): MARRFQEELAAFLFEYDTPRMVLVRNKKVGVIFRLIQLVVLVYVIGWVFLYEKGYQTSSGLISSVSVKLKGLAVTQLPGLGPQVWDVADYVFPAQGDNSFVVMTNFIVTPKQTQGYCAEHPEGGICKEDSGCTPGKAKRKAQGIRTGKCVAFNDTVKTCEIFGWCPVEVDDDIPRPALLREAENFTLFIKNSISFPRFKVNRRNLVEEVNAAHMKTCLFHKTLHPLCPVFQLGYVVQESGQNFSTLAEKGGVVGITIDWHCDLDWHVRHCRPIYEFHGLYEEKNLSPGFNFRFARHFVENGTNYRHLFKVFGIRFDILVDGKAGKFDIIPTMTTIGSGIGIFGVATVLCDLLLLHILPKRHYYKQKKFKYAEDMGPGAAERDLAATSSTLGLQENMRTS
# EV71 [1] = assay: Inhibition of EV71 replication in RD cells at 0.1, 1, 10 and 100 μM (CPE, crystal violet); format: cell-based, Enterovirus 71; set-up: key to Inhibition of EV71 replication: −: no activity
# Method: Inhibitory effect of each P2X receptor antagonists and agonists on EV71 replication was measured at 0.1, 1, 10, and 100 μM. Specific procedures refer to “1” of Example 1. after infection, however, cells need to be incubated for 3˜4 days, stained with crystal violet, and observed under optical microscope to determine whether or not CPE (cytopathic effect) was present. In addition, the effect of compounds at each concentration on cytotoxicity to RD cells was determined. After culturing RD cells in various concentrations of compounds for 3˜4 days, stained with crystal violet, and observed under optical microscope to observe whether or not cell layer was damaged. Compounds capable of protecting cells from infection without damage of healthy cell layer can inhibit EV71 replication in RD cells.
# P2X2 receptor = molecular target: T5, P2X2 receptor (Homo sapiens, UniProt Q9UBL9); set-up: key: −: no activity; +: activating concentration >10 μM; ++: activating concentration 1~10 μM; +++: activating concentration <1 μM; conditions: cited from earlier work
# T5 sequence (Q9UBL9 1-471): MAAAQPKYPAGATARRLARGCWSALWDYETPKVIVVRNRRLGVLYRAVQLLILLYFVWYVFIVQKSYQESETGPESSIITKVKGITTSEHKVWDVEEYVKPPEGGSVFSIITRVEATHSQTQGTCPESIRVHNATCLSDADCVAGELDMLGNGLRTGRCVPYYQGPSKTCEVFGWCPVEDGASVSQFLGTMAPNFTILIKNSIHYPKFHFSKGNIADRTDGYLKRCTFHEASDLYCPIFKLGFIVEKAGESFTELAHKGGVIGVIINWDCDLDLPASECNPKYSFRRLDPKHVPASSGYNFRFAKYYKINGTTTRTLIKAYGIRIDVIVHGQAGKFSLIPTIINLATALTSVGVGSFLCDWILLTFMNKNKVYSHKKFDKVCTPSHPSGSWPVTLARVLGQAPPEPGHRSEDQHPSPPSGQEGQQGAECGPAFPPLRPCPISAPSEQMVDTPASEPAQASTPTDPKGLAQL
# EV71 [2] = assay: Effects of other antagonists and agonists on EV71 (Table 9); format: cell-based, Enterovirus 71; set-up: key: “NO” indicates there is negative
# P2X2/3 = P2X2/3 (Homo sapiens, UniProt P56373+Q9UBL9); conditions: Table 9, antagonists; cited from earlier work
# P2X5 receptor = P2X5 receptor (Homo sapiens, UniProt Q93086); conditions: cited from earlier work
# Sequence of P2X5 receptor (Q93086 whole entry): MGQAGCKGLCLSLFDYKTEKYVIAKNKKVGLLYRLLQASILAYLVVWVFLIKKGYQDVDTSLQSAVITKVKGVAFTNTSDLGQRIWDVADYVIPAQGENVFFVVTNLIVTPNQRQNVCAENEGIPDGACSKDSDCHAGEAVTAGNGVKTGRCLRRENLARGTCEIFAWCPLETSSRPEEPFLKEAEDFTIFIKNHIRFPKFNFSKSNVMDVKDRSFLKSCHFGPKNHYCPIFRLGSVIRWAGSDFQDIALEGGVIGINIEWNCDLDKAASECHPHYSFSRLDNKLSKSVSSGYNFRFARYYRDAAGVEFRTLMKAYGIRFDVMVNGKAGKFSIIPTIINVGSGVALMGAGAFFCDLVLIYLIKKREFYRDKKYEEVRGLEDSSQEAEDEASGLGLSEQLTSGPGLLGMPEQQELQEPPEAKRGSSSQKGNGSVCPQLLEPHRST
# EV71 FY-23 = assay: EV71 infection of adult rhesus monkeys: blood viral load and body temperature; format: in vivo, rhesus monkey (Macaca); conditions: 50 mg/kg suramin i.v.
# Excerpt: 10 adult rhesus monkeys, which were detected negative for EV71 antibody (rhesus monkey (Macaca), Source: Institute of Medical Biology, Chinese Academy of Medical Sciences, Experimental animal use license number: SYXK (Yunnan) 2010-0009, Certification unit: Yunnan Provincial Science and Technology Agency), were randomly divided into two groups, namely: five in control group (aged about 4 years old, weighing about 5.3 kg, injected with physiological saline), 5 in treatment group (aged about 4.6 years old, weighs about 5.44 kg, injected with 50 mg/kg suramin). Multiple intravenous injections of suramin (50 mg/kg) were used. […] Specific experimental procedure is as follows:
# Then, drug was administered intravenously at a dose (50 mg/kg suramin or physiological saline).
# Intravenous viral challenge was performed with 4.5 lgCCID50 EV71 FY-23.
# Whole blood RNA extraction: obtained 0.2 ml blood, added 0.8 ml TRNzol-A^+, after mixing, placed the well at room temperature for 10 min; added 0.2 ml chloroform, tightened cover lid, vigorously shaking for 15 sec, placed at room temperature for 5 min, centrifuged at 12500 rpm, 4° C., 20 min, 0.4 ml of aqueous phase was transferred to another fresh tube, equal volume of isopropanol was added, mixed, placed at room temperature for 30 min; centrifuged at 12500 rpm, 4° C., 20 min, supernatant was discarded, 1 ml of 75% ethanol was added to wash precipitates, centrifuged at 12500 rpm, 4° C., 30 min. Supernatant discarded, placed at room temperature for 30 min, RNA dried, 20 μl RNase-free ddH2O added, and RNA fully dissolved. Viral load was determined by measurement method as follows:
# 1) Standard dilutions: obtaining standards (performed according to TaKaRa MiniBEST Viral RNA/DNA extraction Kit Ver 3.0 instructions), 10 μl standards were obtained, 10-fold serial dilutions 10^6, 10^5, 10^4, 10^3, 10^2, 10^1, 10^0.
# 2) Primer sequences (Taqman probe method):
# 3) Preparing RT-PCR reaction solution (reaction solutions were prepared on ice):
# 4) Performing Real Time One Step RT-PCR.
Compound,EV71 Log10 reduction (EV71 [2]),"P2X receptors 3 (P2X3 receptor; Table 8, agonists)","P2X receptors 4 (P2X4 receptor; Table 8, agonists)","P2X receptors 1 (P2X1 receptor; Table 8, agonists)","Inhibition of EV71 replication (EV71 [1]; Table 8, agonists)","P2X receptors 5 (P2X5 receptor; Table 8, agonists)","P2X receptors 5 (P2X5 receptor; Table 9, agonists)","P2X receptors 2 (P2X2 receptor; Table 8, agonists)",further results
"O=C(Nc1ccc(C(=O)Nc2ccc(C(=O)Nc3ccc(S(=O)(=O)O)c4cc(S(=O)(=O)O)cc(S(=O)(=O)O)c34)cc2)cc1)Nc1ccc(C(=O)Nc2ccc(C(=O)Nc3ccc(S(=O)(=O)O)c4cc(S(=O)(=O)O)cc(S(=O)(=O)O)c34)cc2)cc1 [NF279, 8,8′-(carbonylbis(imino-4,1-phenylenecarbonylimino-4,1-phenylenecarbonylimino))bis(1,3,5-naphthalenetrisulfonic acid)]",,,,,,,,,"P2X receptors 3 (P2X3 receptor; Table 8, antagonists): + (+: inhibitory concentration >300 nM); P2X receptors 4 (P2X4 receptor; Table 8, antagonists): −; P2X receptors 7 (P2X7 receptor; Table 8, antagonists): + (+: inhibitory concentration >300 nM); P2X receptors 1 (P2X1 receptor; Table 8, antagonists): +++ (+++: inhibitory concentration <10 nM); inhibition of EV71 replication (statement in words) (EV71 [1]): can also inhibit EV71 replication; Inhibition of EV71 replication (EV71 [1]; Table 8, antagonists): + (+: inhibitory concentration >300 nM); P2X receptors 2 (P2X2 receptor; Table 8, antagonists): + (+: inhibitory concentration >300 nM)"
COc1cc(Cc2cnc(N)nc2N)c(C(C)C)cc1OC [RO-3],NO,,,,,,,,"P2X receptors 3 (P2X3 receptor; Table 9, antagonists): ✓ ✓ (✓ ✓ activating concentration 10 nM-300 nM); Heteromultimer (P2X2/3): ✓ P2X2/3 (✓ activating concentration >300 nM)"
"O=c1ccn([C@@H]2O[C@H](COP(=O)(O)OP(=O)(O)OP(=O)(O)O)[C@@H](O)[C@H]2O)c(=O)[nH]1 [UTP, uridine triphosphate]",NO,−,−,−,−,+ (+: activating concentration >10 μM),✓ (✓ activating concentration >10 μM),−,
"Cc1ccc(C(=O)Nc2ccc(S(=O)(=O)O)c3cc(S(=O)(=O)O)cc(S(=O)(=O)O)c23)cc1NC(=O)c1cccc(NC(=O)Nc2cccc(C(=O)Nc3cc(C(=O)Nc4ccc(S(=O)(=O)O)c5cc(S(=O)(=O)O)cc(S(=O)(=O)O)c45)ccc3C)c2)c1 [suramin, Suramin]",,,,,,,,,"viral load compared with control group (EV71 FY-23; rhesus monkeys): significantly lower; blood viral load of drug treatment group (average) (EV71 FY-23; 4th, 7th and 13th days after viral challenge, control peak 1-1.5×10^3 copies/ml): 1.5×10^1 copies/ml; body temperature after infection (EV71 FY-23; control group showed a rise 1 day after infection): essentially maintained body temperatures within normal range"
Ivermectine,NO,,++ (++: activating concentration 1~10 μM),,−,,,,"P2X receptors 4 (P2X4 receptor; Table 9, modulator, no key printed for this class): ✓ ✓ ✓"
bzATP,NO,+ (+: activating concentration >10 μM),+++ (+++: activating concentration <1 μM),+++ (+++: activating concentration <1 μM),−,++ (++: activating concentration 1~10 μM),✓ ✓ (✓ ✓ activating concentration 1-10 μM),++ (++: activating concentration 1~10 μM),"P2X receptors 3 (P2X3 receptor; Table 9, agonists): ✓ (✓ activating concentration >10 μM); P2X receptors 4 (P2X4 receptor; Table 9, agonists): ✓ ✓ ✓ (✓ ✓ ✓ activating concentration <1 μM); P2X receptors 7 (P2X7 receptor; Table 8, agonists): ++ (++: activating concentration 1~10 μM); P2X receptors 7 (P2X7 receptor; Table 9, agonists): ✓ ✓ ✓ (✓ ✓ ✓ activating concentration <1 μM); P2X receptors 1 (P2X1 receptor; Table 9, agonists): ✓ ✓ ✓ (✓ ✓ ✓ activating concentration <1 μM); P2X receptors 2 (P2X2 receptor; Table 9, agonists): ✓ ✓ (✓ ✓ activating concentration 1-10 μM)"
